Reference: patent publication US20090197970A1, “CRYSTALLINE FORM OF CINACALCET” (Sandoz AG, priority 2006, published 2009)
Blank lines part the entries; values can stand above or below the molecule they belong to.

What was measured:
Assay type in all cases: physicochemical
[1] = Temperature range of stability of the polymorph (DSC discussion); details: form only stable above this temperature
Procedure: DSC curves were recorded with a DSC 7 system (Perkin Elmer, Norwalk, Conn., USA) using the Pyris 2.0. software. Samples of approximately 2 mg were weighted into A1 pans with perforated cover. Dry nitrogen was used as purge gas. X-axis is the temperature in ° C., Y-axis gives dH/dT (endo up).
Form I is a crystalline form which melts at about 180° C. and is only stable at temperatures above 130° C.

[2] = Flowability and handling of the crystals; details: crystals in the form of plates
[3] = Storage stability of the crystalline form; details: stored at ambient temperature

- temperature at which the form is stable [1]: above 130 °C
SMILES: C[C@@H](NCCCc1cccc(C(F)(F)F)c1)c1cccc2ccccc12.Cl [Form I]

- flowability characteristics [2]: favourable flowability characteristics
SMILES: C[C@@H](NCCCc1cccc(C(F)(F)F)c1)c1cccc2ccccc12.Cl

- stable when stored [3]: ≥ 3 months
SMILES: C[C@@H](NCCCc1cccc(C(F)(F)F)c1)c1cccc2ccccc12.Cl [Form III of Cinacalcet hydrochloride]
